Experimental data taken from patent US5112967A, “Process for synthesizing antibacterial cephalosporin compounds” (Hoffmann-La Roches Inc., priority 1990, dated 1992).
Counter-ions that a name gives are not always drawn. Like-named read-outs stand apart in the source and are kept apart here.

Legend:
Format in all cases: cell-based
P. aeruginosa 765 = assay: Broth Dilution Method MIC; details: Pseudomonas aeruginosa, In Vitro
Text: (§1) Compounds of the formula I and Ia, including their active geometric and/or optical isomers, their salts and esters and hydrates of those compounds can be used as agents to combat bacterial infections (including urinary tract infections and respiratory infections) in mammalian species, e.g., dogs, cats, horses, etc., and humans. […]. The […] activity of selected compounds of formulas I and Ia as measured by the Minimum Inhibitory Concentration in micrograms/ml utilizing the Agar Well Diffusion Method, Agar Dilution Method or Broth Dilution Method against a variety of Gram-positive and Gram-negative organisms, is as follows:
(§2) In Vitro MIC (ug/ml) Broth Dilution Method

P. aeruginosa B = assay: Broth Dilution Method MIC; details: Pseudomonas aeruginosa
Text: as §1, §2

P. aeruginosa 6148B = assay: Broth Dilution Method MIC; details: Pseudomonas aeruginosa, In Vitro
Text: as §1, §2

P. aeruginosa K77/61 = assay: Broth Dilution Method MIC; details: Pseudomonas aeruginosa
Text: as §1, §2

P. aeruginosa K77/WT = assay: Broth Dilution Method MIC; details: Pseudomonas aeruginosa, In Vitro
Text: as §1, §2

P. aeruginosa 503-56 = assay: Broth Dilution Method MIC; details: Pseudomonas aeruginosa, 50356, In Vitro
Text: as §1, §2

P. aeruginosa 185/H [1] = assay: Broth Dilution Method MIC; details: Pseudomonas aeruginosa, In Vitro
Text: as §1, §2

P. aeruginosa Stone 130 [2] = assay: Broth Dilution Method MIC; details: Pseudomonas aeruginosa, STONE130, In Vitro
Text: as §1, §2

P. aeruginosa 8710 = assay: Broth Dilution Method MIC; details: Pseudomonas aeruginosa
Text: as §1, §2

P. aeruginosa 8780 = assay: Broth Dilution Method MIC; details: Pseudomonas aeruginosa, In Vitro
Text: as §1, §2

P. aeruginosa 5700 = assay: Broth Dilution Method MIC; details: Pseudomonas aeruginosa, In Vitro
Text: as §1, §2

P. aeruginosa ATCC 27853 = assay: Broth Dilution Method MIC; details: Pseudomonas aeruginosa, ATCC27853, In Vitro
Text: as §1, §2

P. aeruginosa 1973E = assay: Broth Dilution Method MIC; details: Pseudomonas aeruginosa, In Vitro
Text: as §1, §2

P. aeruginosa 130 = assay: Agar Dilution Method MIC; details: Pseudomonas aeruginosa, In Vitro
Text: as §1
(§3) In Vitro MIC (ug/ml) Agar Dilution Method

S. aureus ATCC 25923 = assay: Agar Dilution Method MIC; details: Staphylococcus aureus, ATCC25923, In Vitro
Text: as §1, §3

S. aureus Giorgid = assay: Agar Dilution Method MIC; details: Staphylococcus aureus, In Vitro
Text: as §1, §3

S. aureus 1059B = assay: Agar Dilution Method MIC; details: Staphylococcus aureus, In Vitro
Text: as §1, §3

P. mirabilis 190 = assay: Agar Dilution Method MIC; details: Proteus mirabilis, In Vitro
Text: as §1, §3

E. cloacae P99 = assay: Agar Dilution Method MIC; details: Enterobacter cloacae
Text: as §1, §3

P. aeruginosa 185/H [3] = assay: Agar Dilution Method MIC; details: Pseudomonas aeruginosa, In Vitro
Text: as §1, §3

P. aeruginosa Stone 130 [4] = assay: Agar Dilution Method MIC; details: Pseudomonas aeruginosa, STONE130, In Vitro
Text: as §1, §3

S. marscescens SM = assay: Agar Dilution Method MIC; details: In Vitro
Text: as §1, §3

S. aureus 95 = assay: Agar Dilution Method MIC; details: Staphylococcus aureus, In Vitro
Text: as §1, §3

P. vulgaris ATCC 6380 = assay: Agar Dilution Method MIC; details: Proteus vulgaris, ATCC6380, In Vitro
Text: as §1, §3

S. aureus Smith = assay: Agar Dilution Method MIC; details: Staphylococcus aureus, In Vitro
Text: as §1, §3

E. cloacae 9570A = assay: Agar Dilution Method MIC; details: Enterobacter cloacae, In Vitro
Text: as §1, §3

[5] = In Vitro, Broth Dilution, P. aeruginosa B, read-out: MIC

SMILES: CON=C(C(=O)NC1C(=O)N2C(C(=O)O)=C(COC(=O)c3ccc(O)c(O)c3)CSC12)c1csc(N)n1 (stereo not drawn) [Compound A, [6R-[6 alpha,7 beta(Z)]]-7-[[2-amino-4-thiazolyl)(methoxyimino)acetyl]amino]-3-[[[(3,4-dihydroxyphenyl)carbonyl]oxy]methyl]-8-oxo-5-thia-1-azabicyclo[4.2.0]oct-2-ene-2-carboxylic acid monosodium salt]
- MIC (P. aeruginosa 765): 4 µg/mL
- MIC (P. aeruginosa B; [5]): 2 µg/mL
- MIC (P. aeruginosa 6148B): 2 µg/mL
- MIC (P. aeruginosa K77/61): 0.25 µg/mL
- MIC (P. aeruginosa K77/WT): 1 µg/mL
- MIC (P. aeruginosa 503-56): 4 µg/mL
- MIC (P. aeruginosa 185/H [1]): 0.016 µg/mL
- MIC (P. aeruginosa Stone 130 [2]): 2 µg/mL
- MIC (P. aeruginosa 8710; In Vitro, Broth Dilution, P. aeruginosa 8710, read-out: MIC): 2 µg/mL
- MIC (P. aeruginosa 8780): 0.5 µg/mL
- MIC (P. aeruginosa 5700): 8 µg/mL
- MIC (P. aeruginosa ATCC 27853): 8 µg/mL
- MIC (P. aeruginosa 1973E): 4 µg/mL

SMILES: CC(=O)Oc1ccc(C(=O)OCC2=C(C(=O)O)N3C(=O)C(NC(=O)C(=NOCC(N)=O)c4csc(N)n4)C3SC2)cc1OC(C)=O (stereo not drawn) [Compound B, [6R-[alpha,7 beta(Z)]]-3-[[[3,4-bis(acetyloxy)benzoyl]oxy]methyl]-7-[[[2-amino-4-thiazolyl][(2-amino-2-oxoethoxy)imino]acetyl]amino]-8-oxo-5-thia-1-azabicyclo[4.2.0]oct-2-ene-2-carboxylic acid monosodium salt]
- MIC (P. aeruginosa 130): 4 µg/mL
- MIC (S. aureus ATCC 25923): 2 µg/mL
- MIC (S. aureus Giorgid): 8 µg/mL
- MIC (S. aureus 1059B): 4 µg/mL
- MIC (P. mirabilis 190): 0.063 µg/mL
- MIC (E. cloacae P99): 32 µg/mL
- MIC (P. aeruginosa 185/H [3]): 2 µg/mL
- MIC (P. aeruginosa Stone 130 [4]): 4 µg/mL
- MIC (S. marscescens SM): 1 µg/mL
- MIC (S. aureus 95): 64 µg/mL
- MIC (P. vulgaris ATCC 6380): 0.016 µg/mL
- MIC (S. aureus Smith): 4 µg/mL
- MIC (E. cloacae 9570A): 1 µg/mL

SMILES: CC(C)(ON=C(C(=O)NC1C(=O)N2C(C(=O)O)=C(COC(=O)c3ccc(O)c(O)c3)CSC12)c1csc(N)n1)C(=O)O (stereo not drawn) [Compound C, [6R-[6 alpha,7 beta(Z)]]-7-[[(2-amino-4-thiazolyl)(1-carboxy-1-methylethoxy)imino]acetyl]amino]-3-[[3,4-dihydroxybenzoyl)oxy]methyl]-8-oxo-5-thia-1-azabicyclo[4.2.0]oct-2-ene-2-carboxylicacid disodium salt]
- MIC (P. aeruginosa 765): 8 µg/mL
- MIC (P. aeruginosa B): 0.125 µg/mL
- MIC (P. aeruginosa 6148B): 0.031 µg/mL
- MIC (P. aeruginosa K77/61): > 0.008 µg/mL
- MIC (P. aeruginosa K77/WT): 0.63 µg/mL
- MIC (P. aeruginosa 503-56): 0.25 µg/mL
- MIC (P. aeruginosa 185/H [1]): 0.031 µg/mL
- MIC (P. aeruginosa Stone 130 [2]): 0.125 µg/mL
- MIC (P. aeruginosa 8710; 8710): 0.063 µg/mL
- MIC (P. aeruginosa 8780): > 0.008 µg/mL
- MIC (P. aeruginosa 5700): 2 µg/mL
- MIC (P. aeruginosa ATCC 27853): 32 µg/mL
- MIC (P. aeruginosa 1973E): 2 µg/mL

SMILES: CCN1CCN(C(=O)N[C@@H](C(=O)N[C@@H]2C(=O)N3C(C(=O)O)=C(COC(=O)c4ccc(O)c(O)c4)CS[C@H]23)c2ccccc2)C(=O)C1=O [Compound D, [6R-[6 alpha,7 beta(R*)]]-7-[[[[(4-ethyl-2,4-dioxo-1-piperazinyl)carbonyl]amino]phenyl-acetyl]amino-3-[[(3,4-dihydroxy)benzoyl]oxy]-methyl]-8-oxo-5-thia-1-azabicyclo[4.2.0.]-oct-2-ene-2-carboxylic acid monosodium salt]
- MIC (P. aeruginosa 765): 128 µg/mL
- MIC (P. aeruginosa B; [5]): 0.25 µg/mL
- MIC (P. aeruginosa 6148B): 0.125 µg/mL
- MIC (P. aeruginosa K77/61): 0.016 µg/mL
- MIC (P. aeruginosa K77/WT): 0.25 µg/mL
- MIC (P. aeruginosa 503-56): 4 µg/mL
- MIC (P. aeruginosa 185/H [1]): 0.125 µg/mL
- MIC (P. aeruginosa Stone 130 [2]): 0.5 µg/mL
- MIC (P. aeruginosa 8710; 8710): 0.125 µg/mL
- MIC (P. aeruginosa 8780): 0.016 µg/mL
- MIC (P. aeruginosa 5700): 4 µg/mL
- MIC (P. aeruginosa ATCC 27853): 0.5 µg/mL
- MIC (P. aeruginosa 1973E): 4 µg/mL
